Reference: ChEMBL document CHEMBL1146546, “Warangalone, the isoflavonoid anti-inflammatory principle of Erythrina addisoniae stem bark” (J Nat Prod, 2003)

What was measured:
Mus musculus [1] = test: Antiinflammatory activity against Naja mossambica PLA2-induced Swiss mouse paw edema assessed as inhibition of paw volume at 5 mg/kg, ip administered before 30 mins of PLA2 challenge measured after 60 mins relative to control; format: functional; conditions: route intraperitoneal
Mus musculus [2] = test: Antiinflammatory activity against Naja mossambica PLA2-induced Swiss mouse paw edema assessed as inhibition of paw volume at 5 mg/kg, ip administered before 30 mins of PLA2 challenge measured after 30 mins relative to control; format: functional; conditions: 0.5 h, route intraperitoneal
Mus musculus [3] = test: Antiinflammatory activity against carrageenan-induced Swiss mouse paw edema assessed as inhibition of paw volume at 10 mg/kg, po administered 1 hr before carrageenan challenge measured after 1 hr relative to control; format: functional
Mus musculus [4] = test: Antiinflammatory activity against carrageenan-induced Swiss mouse paw edema assessed as inhibition of paw volume at 10 mg/kg, po administered 1 hr before carrageenan challenge measured after 5 hrs relative to control; format: functional
Mus musculus [5] = test: Antiinflammatory activity against carrageenan-induced Swiss mouse paw edema assessed as inhibition of paw volume at 10 mg/kg, po administered 1 hr before carrageenan challenge measured after 3 hrs relative to control; format: functional
Mus musculus [6] = test: Antiinflammatory activity against TPA-induced ear edema in Swiss mouse chronic dermatitis model assessed as inhibition of increase in ear weight; format: functional
Mus musculus [7] = species on record: Mus musculus; test: Antiinflammatory activity against Swiss mouse chronic dermatitis model assessed as inhibition of TPA-induced tissue myeloperoxidase activity at 0.5 mg/ear applied twice daily for 4 days measured after 6 hrs relative to control; format: functional
Mus musculus [8] = test: Antiinflammatory activity against TPA-induced ear edema Swiss mouse chronic dermatitis model assessed as inhibition of increase in ear weight at 0.5 mg/ear relative to control; format: functional
Platelet = test: Inhibition of calcium ionophore A-23187/calcium-stimulated 12-hydroxyheptadecatrienoic acid production in human platelets; format: functional
Mus musculus [9] = test: Antiinflammatory activity against TPA-induced ear edema in Swiss mouse chronic dermatitis model assessed as inhibition of increase in ear weight at 0.25 mg/ear relative to control; format: functional
[10] = Inhibition of calcium ionophore A-23187/calcium-stimulated LTB4 production in rat polymorphonuclear leukocytes; format: functional
Mus musculus [11] = species on record: Mus musculus; test: Antiinflammatory activity against Swiss mouse chronic dermatitis model assessed as inhibition of TPA-induced tissue myeloperoxidase activity at 0.25 mg/ear applied twice daily for 4 days measured after 6 hrs relative to control; format: functional
[12] = Inhibition of PKC catalytic subunit

IC50 [12]	Compound	inhibition in vivo at 5 mg/kg (Mus musculus [1])	inhibition in vivo at 5 mg/kg (Mus musculus [2])	inhibition in vivo at 10 mg/kg (Mus musculus [3])	inhibition in vivo at 10 mg/kg (Mus musculus [4])	inhibition in vivo at 10 mg/kg (Mus musculus [5])	ID50 (Mus musculus [6])	inhibition (INH) (Mus musculus [7])	inhibition (INH) (Mus musculus [8])	inhibition (INH) (Platelet)	inhibition (INH) (Mus musculus [9])	inhibition (INH) [10]	inhibition (INH) (Mus musculus [11])
	CN1CCC(=C2c3ccccc3C=Cc3ccccc32)CC1 [CYPROHEPTADINE]	63%	66%										
	COc1ccc2c(c1)c(CC(=O)O)c(C)n2C(=O)c1ccc(Cl)cc1 [INDOMETHACIN]			14%	31%	60%	0.29 µmol	36%	82%				
3.5 µM	CC(C)=CCc1c2c(c(O)c3c(=O)c(-c4ccc(O)cc4)coc13)C=CC(C)(C)O2 [WARANGALONE]	68%	21%				0.54 µmol			<20%	78%	<20%	41%
